# Laboratory results reported in patent publication EP2582674B1 (Cymabay Therapeutics, Inc., priority 2010, dated 2011).
# pEC50: −log10 of the molar value.
# Target: T1, human GPR120 (Homo sapiens, UniProt Q5NUL3)
# T1 construct: host or cells: HEK293 cells co-expressing Gqi5
# T1 sequence (Q5NUL3 1-361): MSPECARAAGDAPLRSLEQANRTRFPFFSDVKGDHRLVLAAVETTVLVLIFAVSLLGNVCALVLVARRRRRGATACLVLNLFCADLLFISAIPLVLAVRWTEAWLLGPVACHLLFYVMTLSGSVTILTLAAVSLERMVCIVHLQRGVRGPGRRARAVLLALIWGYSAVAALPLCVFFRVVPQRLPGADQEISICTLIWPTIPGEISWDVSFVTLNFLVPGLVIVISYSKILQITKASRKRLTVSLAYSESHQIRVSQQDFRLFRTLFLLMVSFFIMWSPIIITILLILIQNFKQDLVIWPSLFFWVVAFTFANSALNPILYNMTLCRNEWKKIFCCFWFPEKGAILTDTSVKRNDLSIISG
# Assay: Intracellular Ca2+ assay in human GPR120 stable cell line (FLIPR Calcium 4 dye, Flexstation)
# Format: cell-based
# Conditions: % activity at 2.5 µM compared to the maximal activity of the compound of Example 25 at 2.5 µM (=100%); HEK293 cells co-expressing Gqi5
row,% Activity (Ex. 25 Reference Compound),SMILES
1,97.04%,"CC1(C)Cc2cc(F)cc(COc3c(F)cc(CC4CC4C(=O)O)cc3F)c2O1 (stereo not drawn) [Example 184, 2-(3,5-difluoro-4-((5-fluoro-2,2-dimethyl-2,3-dihydrobenzofuran-7-yl)methoxy)benzyl)cyclopropanecarboxylic acid]"

# Same assay, conditions: HEK293, % activity at 2.5 µM compared to the maximal activity of the compound of Example 25 at 2.5 µM (=100%); HEK293 cells co-expressing Gqi5; read-out: % Activity (Ex. 25 Reference Compound)
row,SMILES,activity at 2.5 µM
1,"CC1(C)Cc2cc(Cl)cc(COc3ccc4c(c3)CC[C@H]4CC(=O)O)c2O1 [Example 176, (S)-2-(5-((5-chloro-2,2-dimethyl-2,3-dihydrobenzofuran-7-yl)methoxy)-2,3-dihydro-1H-inden-1-yl)acetic acid]",138%
2,"CC1(C)Cc2cc(Cl)cc(COc3ccc4c(c3)CC[C@@H]4CC(=O)O)c2O1 [Example 179, (R)-2-(5-((5-chloro-2,2-dimethyl-2,3-dihydrobenzofuran-7-yl)methoxy)-2,3-dihydro-1H-inden-1-yl)acetic acid]",105%
3,"CC(CC(=O)O)Cc1ccc(OCc2cc(F)cc3c2OC(C)(C)C3)cc1 (stereo not drawn) [Example 182, 4-(4-((5-fluoro-2,2-dimethyl-2,3-dihydrobenzofuran-7-yl)methoxy)phenyl)-3-methylbutanoic acid]",98.4%
4,"CC1(C)Cc2c(COc3ccc4c(c3)CC[C@@H]4CC(=O)O)cc(F)cc2O1 [Example 188, (R)-2-(5-((6-fluoro-2,2-dimethyl-2,3-dihydrobenzofuran-4-yl)methoxy)-2,3-dihydro-1H-inden-1-yl)acetic acid]",104%
5,"COc1cc(OCc2cc(Cl)cc3c2OC2(CCCC2)C3)ccc1CCC(=O)O [Example 194, 3-(4-((5-chloro-3H-spiro[benzofuran-2,1'-cyclopentane]-7-yl)methoxy)-2-methoxyphenyl)propanoic acid]",148%
6,"CC1(C)Cc2cc(F)cc(COc3cc(Cl)c(CCC(=O)O)c(Cl)c3)c2O1 [Example 197, 3-(2,6-dichloro-4-((5-fluoro-2,2-dimethyl-2,3-dihydrobenzofuran-7-yl)methoxy)phenyl)propanoic acid]",151%
7,"Cc1cc(OCc2cc(F)cc3c2OC(C)(C)C3)c(C)cc1CCC(=O)O [Example 206, 3-(4-((5-fluoro-2,2-dimethyl-2,3-dihydrobenzofuran-7-yl)methoxy)-2,5-dimethylphenyl)propanoic acid]",111%
8,"Cc1cc(OCc2cc(F)cc3c2OC(C)(C)C3)c(F)cc1CCC(=O)O [Example 214, 3-(5-fluoro-4-((5-fluoro-2,2-dimethyl-2,3-dihydrobenzofuran-7-yl)methoxy)-2-methylphenyl)propanoic acid]",143%
9,"CCc1c(CCC(=O)O)ccc(OCc2cc(F)cc3c2OC(C)(C)C3)c1F [Example 216, 3-(2-ethyl-3-fluoro-4-((5-fluoro-2,2-dimethyl-2,3-dihydrobenzofuran-7-yl)methoxy)phenyl)propanoic acid]",144%
10,"CC1(C)Cc2cc(F)cc(COc3ccc(CCC(=O)O)c4c3CCCC4)c2O1 [Example 218, 3-(4-((5-fluoro-2,2-dimethyl-2,3-dihydrobenzofuran-7-yl)methoxy)-5,6,7,8-tetrahydronaphthalen-1-yl)propanoic acid]",114%
11,"CCc1cc(OCc2cc(F)cc3c2OC(C)(C)C3)c(F)cc1CCC(=O)O [Example 220, 3-(2-ethyl-5-fluoro-4-((5-fluoro-2,2-dimethyl-2,3-dihydrobenzofuran-7-yl)methoxy)phenyl)propanoic acid]",116%
12,"[2H]C([2H])(Oc1ccc(CCC(=O)O)c(CC)c1F)c1cc(F)cc2c1OC(C)(C)C2 [Example 228, 3-(4-(dideuterio(5-fluoro-2,2-dimethyl-2,3-dihydrobenzofuran-7-yl)methoxy)-3-fluoro-2-ethylphenyl)propanoic acid]",119%
13,"[2H]C([2H])(Oc1ccc(CC(C)C(=O)O)cc1F)c1cc(F)cc2c1OC(C)(C)C2 (stereo not drawn) [Example 230, 3-(4-(dideuterio(5-fluoro-2,2-dimethyl-2,3-dihydrobenzofuran-7-yl)methoxy)-3-fluorophenyl)-2-methylpropanoic acid]",86.2%
14,"[2H]C([2H])(Oc1ccc(CC(C)C(=O)O)cc1C(F)(F)F)c1cc(F)cc2c1OC(C)(C)C2 (stereo not drawn) [Example 231, 3-(4-(dideuterio(5-fluoro-2,2-dimethyl-2,3-dihydrobenzofuran-7-yl)methoxy)-3-(trifluoromethyl)phenyl)-2-methylpropanoic acid]",101%
15,"[2H]C([2H])(C(=O)O)C([2H])([2H])c1ccc(OCc2cc(Cl)cc3c2OC(C)(C)C3)c(F)c1 [Example 241, 3-(4-((5-chloro-2,2-dimethyl-2,3-dihydrobenzofuran-7-yl)methoxy)-3-fluorophenyl)-2,2,3,3-tetradeuteriopropanoic acid]",160%

# Now from value to molecule:
row,activity at 2.5 µM,SMILES
1,155%,"[2H]C([2H])(C(=O)O)C([2H])([2H])c1ccc(OCc2cc(F)cc3c2OC(C)(C)C3)c(F)c1CC [Example 243, 3-(2-ethyl-3-fluoro-4-((5-fluoro-2,2-dimethyl-2,3-dihydrobenzofuran-7-yl)methoxy)phenyl)-2,2,3,3-tetradeuteriopropanoic acid]"
2,10.2%,"CC1(C)Cc2cc(Cl)cc(COc3ccccc3CCC(=O)O)c2O1 [Example 250, 3-(2-((5-chloro-2,2-dimethyl-2,3-dihydrobenzofuran-7-yl)methoxy)phenyl)propanoic acid]"
3,61.1%,"CC(Cc1cccc(OCc2cc(Cl)cc3c2OC(C)(C)C3)c1)C(=O)O (stereo not drawn) [Example 251, 3-(3-((5-chloro-2,2-dimethyl-2,3-dihydrobenzofuran-7-yl)methoxy)phenyl)-2-methylpropanoic acid]"
4,146%,"Cc1cc(CCC(=O)O)c(C)c(C)c1OCc1cc(F)cc2c1OC(C)(C)C2 [Example 254, 3-(4-((5-fluoro-2,2-dimethyl-2,3-dihydrobenzofuran-7-yl)methoxy)-2,3,5-trimethylphenyl) propanoic acid]"
5,125%,"CC(C)Oc1ccc(Cl)cc1COc1cc2c(cc1F)C(CC(=O)O)CC2 (stereo not drawn) [Example 257, 2-(5-((5-chloro-2-isopropoxybenzyl)oxy)-6-fluoro-2,3-dihydro-1H-inden-1-yl)acetic acid]"
6,140%,"CC(C)Oc1ccc(Cl)cc1COc1ccc2c(c1)CCC2CC(=O)O (stereo not drawn) [Example 258, 2-(5-((5-chloro-2-isopropoxybenzyl)oxy)-2,3-dihydro-1H-inden-1-yl)acetic acid]"
7,118%,"CC(C)Oc1ncccc1COc1ccc2c(c1)CCC2CC(=O)O (stereo not drawn) [Example 259, 2-(5-((2-isopropoxypyridin-3-yl)methoxy)-2,3-dihydro-1H-inden-1-yl)acetic acid]"
8,16.7%,"CC(Cc1cc(F)c(OCc2cccc3cn[nH]c23)c(F)c1)C(=O)O (stereo not drawn) [Example 260, 3-(4-((1H-indazol-7-yl)methoxy)-3,5-difluorophenyl)-2-methylpropanoic acid]"
9,109%,"Cc1nc2cccc(COc3c(F)cc(CC(C)C(=O)O)cc3F)c2o1 (stereo not drawn) [Example 261, 3-(3,5-difluoro-4-((2-methylbenzo[d]oxazol-7-yl)methoxy)phenyl)-2-methylpropanoic acid]"
10,137%,"CC1(C)Cc2cc(F)cc(COc3ccc4c(CC(=O)O)coc4c3)c2O1 [Example 262, 2-(6-((5-fluoro-2,2-dimethyl-2,3-dihydrobenzofuran-7-yl)methoxy)benzofuran-3-yl)acetic acid]"
11,5.98%,"CC1(C)Cc2cc(F)cc(COc3ccc4c(CC(=O)O)cc(=O)oc4c3)c2O1 [Example 263, 2-(7-((5-fluoro-2,2-dimethyl-2,3-dihydrobenzofuran-7-yl)methoxy)-2-oxo-2H-chromen-4-yl)acetic acid]"
12,110%,"CC(Cc1ccc(OCc2cc(F)cc3c2OC(C)(C)C3)cc1)C(=O)NO (stereo not drawn) [Example 264, 3-(4-((5-fluoro-2,2-dimethyl-2,3-dihydrobenzofuran-7-yl)methoxy)phenyl)-N-hydroxy-2-methylpropanamide]"
13,42.7%,"CC(C)C(CC(=O)O)c1ccc(OCc2cc(Cl)cc3c2OC(C)(C)C3)cc1 (stereo not drawn) [Example 266, 3-(4-((5-chloro-2,2-dimethyl-2,3-dihydrobenzofuran-7-yl)methoxy)phenyl)-4-methylpentanoic acid]"
14,141%,"Cc1c(CCC(=O)O)ccc(OCc2cc(Cl)cc3c2CC(C)(C)O3)c1C [Example 267, 3-(4-((6-chloro-2,2-dimethyl-2,3-dihydrobenzofuran-4-yl)methoxy)-2,3-dimethylphenyl)propanoic acid]"

# Same assay, conditions: eight concentrations from 0.00001 to 20 µM; changes (Max-Min) of fluorescence intensity
row,pEC50,SMILES
1,5.00 to 6.00,"CC(CC(=O)O)Cc1ccc(OCc2cc(Cl)cc3c2OC(C)(C)C3)cc1 (stereo not drawn) [Example 183, 4-(4-((5-chloro-2,2-dimethyl-2,3-dihydrobenzofuran-7-yl)methoxy)phenyl)-3-methylbutanoic acid]"
2,< 5.00,"CC1(C)Cc2cc(Cl)cc(COc3ccccc3CCC(=O)O)c2O1 [Example 250, 3-(2-((5-chloro-2,2-dimethyl-2,3-dihydrobenzofuran-7-yl)methoxy)phenyl)propanoic acid]"
3,5.00 to 6.00,"CC(Cc1cccc(OCc2cc(Cl)cc3c2OC(C)(C)C3)c1)C(=O)O (stereo not drawn) [Example 251, 3-(3-((5-chloro-2,2-dimethyl-2,3-dihydrobenzofuran-7-yl)methoxy)phenyl)-2-methylpropanoic acid]"
